Activity calls are given as the source filed them. The calls are words filed in the database; no cut-off is given here.
Experiments:
[1] = tested on: MDA-MB-231; experiment: Antiproliferative activity against human MDA-MB-231 cells assessed as inhibition rate at 100 uM incubated for 72 hrs by MTT assay; type: functional
[2] = tested on: MDA-MB-231; experiment: Antiproliferative activity against human MDA-MB-231 cells assessed as inhibition rate at 10 uM incubated for 72 hrs by MTT assay; type: functional
[3] = tested on: MDA-MB-231; experiment: Antiproliferative activity against human MDA-MB-231 cells assessed as inhibition rate at 1 uM incubated for 72 hrs by MTT assay; type: functional
[4] = tested on: MDA-MB-435; experiment: Antiproliferative activity against human MDA-MB-435 cells assessed as inhibition rate incubated for 72 hrs by MTT assay; type: functional, cell-based; conditions: MDA-MB-435, 72 h
[5] = tested on: HCT-116; experiment: Antiproliferative activity against human HCT-116 cells assessed as inhibition rate incubated for 72 hrs by MTT assay; type: functional, cell-based; conditions: HCT-116, 72 h
[6] = tested on: A549; experiment: Antiproliferative activity against human A549 cells assessed as inhibition rate incubated for 72 hrs by MTT assay; type: functional, cell-based; conditions: A549, 72 h
[7] = tested on: MDA-MB-231; experiment: Antiproliferative activity against human MDA-MB-231 cells assessed as inhibition rate incubated for 72 hrs by MTT assay; type: functional, cell-based; conditions: MDA-MB-231, 72 h
[8] = target: T1, DNA topoisomerase 1 (Homo sapiens) (UniProt P11387); experiment: Inhibition of topoisomerase 1 (unknown origin) assessed as relaxation of supercoiled plasmid pBR322 DNA upto 500 uM incubated for 15 mins by agarose gel electrophoresis; conditions: dose microM <=500, time 15.0 min
T1 sequence (whole entry): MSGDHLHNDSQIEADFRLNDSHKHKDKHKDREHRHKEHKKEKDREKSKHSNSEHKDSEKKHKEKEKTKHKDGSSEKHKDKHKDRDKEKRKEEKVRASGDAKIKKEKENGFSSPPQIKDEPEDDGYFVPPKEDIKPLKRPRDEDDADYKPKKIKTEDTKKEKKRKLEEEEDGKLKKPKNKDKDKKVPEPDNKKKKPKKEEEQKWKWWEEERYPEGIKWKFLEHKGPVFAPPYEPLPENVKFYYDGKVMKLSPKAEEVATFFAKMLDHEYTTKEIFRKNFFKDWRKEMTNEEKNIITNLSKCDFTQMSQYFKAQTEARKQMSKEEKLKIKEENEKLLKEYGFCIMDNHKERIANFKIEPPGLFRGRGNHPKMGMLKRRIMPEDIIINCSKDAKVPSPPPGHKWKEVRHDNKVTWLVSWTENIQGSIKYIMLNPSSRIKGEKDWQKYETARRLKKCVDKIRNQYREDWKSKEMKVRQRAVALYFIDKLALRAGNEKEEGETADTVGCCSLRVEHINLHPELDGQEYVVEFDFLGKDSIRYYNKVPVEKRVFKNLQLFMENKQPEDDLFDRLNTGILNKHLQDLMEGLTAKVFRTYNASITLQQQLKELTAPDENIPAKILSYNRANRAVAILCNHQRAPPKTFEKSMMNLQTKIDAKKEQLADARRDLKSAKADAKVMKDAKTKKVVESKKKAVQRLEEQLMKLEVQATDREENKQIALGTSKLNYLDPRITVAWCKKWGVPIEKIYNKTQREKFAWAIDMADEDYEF

[9] = tested on: HEK293; experiment: cells; type: ADME, cell-based; conditions: Homo sapiens, HEK293, 72 h
Description: Antiproliferative activity against HEK293 cells assessed as inhibition rate incubated for 72 hrs by MTT assay

[10] = tested on: MCF-10A; experiment: cells; type: ADME, cell-based; conditions: Homo sapiens, 72 h
Description: Antiproliferative activity against human MCF-10A cells assessed as inhibition rate incubated for 72 hrs by MTT assay

[11] = Selectivity index, ratio of IC50 for human MCF-10A cells to IC50 for human MDA-MB-231 cells
[12] = tested on: 4T1; experiment: Antiproliferative activity against mouse 4T1 cells assessed as inhibition rate incubated for 72 hrs by MTT assay; type: functional, cell-based; conditions: 4T1, 72 h
[13] = tested on: MCF7; experiment: Antiproliferative activity against human MCF7 cells assessed as inhibition rate incubated for 72 hrs by MTT assay; type: functional, cell-based; conditions: MCF7, 72 h
[14] = tested on: HepG2; experiment: Antiproliferative activity against human HepG2 cells assessed as inhibition rate incubated for 72 hrs by MTT assay; type: functional, cell-based; conditions: HepG2, 72 h
[15] = tested on: H22; experiment: Antiproliferative activity against mouse H22 cells assessed as inhibition rate incubated for 72 hrs by MTT assay; type: functional, cell-based; conditions: H22, 72 h
[16] = tested on: LoVo; experiment: Antiproliferative activity against human LoVo cells assessed as inhibition rate incubated for 72 hrs by MTT assay; type: functional, cell-based
[17] = target: T1, DNA topoisomerase 1 (Homo sapiens); experiment: Induction of topoisomerase 1-DNA cleavable complex in human MDA-MB-231 cells assessed as increase in cleavable complex by measuring SDS-K+ precipitable complex at 15 uM measured up to 15 hrs by liquid scintillation counting analysis; type: cell-based; conditions: time hrs <=15
[18] = tested on: MDA-MB-231; experiment: Antiproliferative activity against human MDA-MB-231 cells transfected with siRNA-Ctrl assessed as cell viability by MTT assay; type: functional, cell-based
[19] = tested on: MDA-MB-231; experiment: Antiproliferative activity against human MDA-MB-231 cells transfected with siRNA-Top1 assessed as cell viability by MTT assay; type: functional, cell-based
[20] = Ratio of IC50 for antiproliferative activity against human MDA-MB-231 cells transfected with siRNA-Top1 to IC50 for antiproliferative activity against human MDA-MB-231 cells transfected with siRNA-Ctrl assessed as cell viability by MTT assay; type: functional

Question: With `COc1ccc2oc3c(c2c1)CCN1C(=O)c2ccccc2OC31` (centres undefined) as the compound, how does the inhibition at 100 µM [1] read?
Answer: 36.6%

Question: What about the inhibition at 10 µM [2] of the same compound?
Answer: 10.6%

Question: What about the inhibition at 1 µM [3] of the same compound?
Answer: 6%

Question: Which inhibition at 100 µM [1] does the source give for `CN1c2ccccc2C(=O)N2Cc3cc4cc(O)ccc4nc3C21` (centres undefined) here?
Answer: 89.9%

Question: What about the inhibition at 10 µM [2] of the same compound?
Answer: 19.8%

Question: What about the inhibition at 1 µM [3] of the same compound?
Answer: 6.3%

Question: With `O=C1c2ccccc2OC2c3oc4ccc(O)cc4c3CCN12` (centres undefined) as the compound, how does the inhibition at 100 µM [1] read?
Answer: 96.5%

Question: What about the inhibition at 10 µM [2] of the same compound?
Answer: 61.2%

Question: What about the inhibition at 1 µM [3] of the same compound?
Answer: 55.1%

Question: And the IC50 [4]?
Answer: 470 nM

Question: What about the IC50 [5] of the same compound?
Answer: 1260 nM

Question: What about the IC50 [6] of the same compound?
Answer: 4280 nM

Question: What about the IC50 [7] of the same compound?
Answer: 860 nM

Question: What about the Activity [8] of the same compound?
Answer: inactive

Question: Which results are given for `COc1ccc2oc3c(c2c1)CCN1C(=O)c2cc(Cl)ccc2OC31` (centres undefined)?
Answer: inhibition at 100 µM [1]: 15.9%; inhibition at 10 µM [2]: 7.3%; inhibition at 1 µM [3]: 2.3%

Question: With `Cc1ccc2c(c1)OC1c3oc4ccc(O)cc4c3CCN1C2=O` (centres undefined) as the compound, how does the inhibition at 100 µM [1] read?
Answer: 94%

Question: And the inhibition at 10 µM [2]?
Answer: 64.8%

Question: And the inhibition at 1 µM [3]?
Answer: 62.7%

Question: And the IC50 [4]?
Answer: 1140 nM

Question: And the IC50 [5]?
Answer: 4710 nM

Question: And the IC50 [6]?
Answer: 10500 nM

Question: What about the IC50 [7] of the same compound?
Answer: 1050 nM

Question: And the Activity [8]?
Answer: inactive

Question: Which inhibition at 100 µM [1] does the source give for `COc1ccc2oc3c(c2c1)CCN1C(=O)c2cccc(C)c2OC31` (centres undefined) here?
Answer: 15%

Question: And the inhibition at 10 µM [2]?
Answer: 11.9%

Question: What about the inhibition at 1 µM [3] of the same compound?
Answer: 7.1%

Question: With `O=C(O)c1ccc2[nH]c3c(c2c1)CCN1C(=O)c2ccccc2OC31` (centres undefined) as the compound, how does the inhibition at 100 µM [1] read?
Answer: 39.6%

Question: What about the inhibition at 10 µM [2] of the same compound?
Answer: 11.2%

Question: And the inhibition at 1 µM [3]?
Answer: 9.7%

Question: With `O=C1c2cc(Cl)cc(Cl)c2OC2c3oc4ccc(O)cc4c3CCN12` (centres undefined) as the compound, how does the inhibition at 100 µM [1] read?
Answer: 96.9%

Question: And the inhibition at 10 µM [2]?
Answer: 59.5%

Question: What about the inhibition at 1 µM [3] of the same compound?
Answer: 32.7%

Question: What about the IC50 [4] of the same compound?
Answer: 2330 nM

Question: And the IC50 [5]?
Answer: 6090 nM

Question: And the IC50 [6]?
Answer: 7580 nM

Question: What about the IC50 [7] of the same compound?
Answer: 3730 nM

Question: And the Activity [8]?
Answer: inactive

Question: Which inhibition at 100 µM [1] does the source give for `COC(=O)c1ccc2[nH]c3c(c2c1)CCN1C(=O)c2ccccc2OC31` (centres undefined) here?
Answer: 45.2%

Question: And the inhibition at 10 µM [2]?
Answer: 15.7%

Question: And the inhibition at 1 µM [3]?
Answer: 12.6%

Question: Which results are given for `Cc1cccc2c1OC1c3oc4ccc(O)cc4c3CCN1C2=O` (centres undefined)?
Answer: inhibition at 100 µM [1]: 97.4%; inhibition at 10 µM [2]: 66.5%; inhibition at 1 µM [3]: 60.6%; IC50 [4]: 1950 nM; IC50 [5]: 3450 nM; IC50 [6]: 6790 nM; IC50 [7]: 2520 nM; Activity [8]: inactive

Question: Which inhibition at 100 µM [1] does the source give for `COc1ccc2oc3c(c2c1)CCN1C(=O)c2cc(Cl)cc(Cl)c2OC31` (centres undefined) here?
Answer: 12.1%

Question: What about the inhibition at 10 µM [2] of the same compound?
Answer: 5.5%

Question: And the inhibition at 1 µM [3]?
Answer: 8.6%

Question: Which inhibition at 100 µM [1] does the source give for `COc1ccc2oc3c(c2c1)CCN1C(=O)c2ccc(C)cc2OC31` (centres undefined) here?
Answer: 41.5%

Question: And the inhibition at 10 µM [2]?
Answer: 19.2%

Question: And the inhibition at 1 µM [3]?
Answer: 7.5%

Question: Which inhibition at 100 µM [1] does the source give for `O=C1c2cc(Br)ccc2OC2c3oc4ccc(O)cc4c3CCN12` (centres undefined) here?
Answer: 94.5%

Question: What about the inhibition at 10 µM [2] of the same compound?
Answer: 83.1%

Question: What about the inhibition at 1 µM [3] of the same compound?
Answer: 75.7%

Question: What about the IC50 [4] of the same compound?
Answer: 810 nM

Question: And the IC50 [5]?
Answer: 1710 nM

Question: And the IC50 [6]?
Answer: 4140 nM

Question: What about the IC50 [7] of the same compound?
Answer: 1160 nM

Question: And the Activity [8]?
Answer: inactive

Question: For `COc1ccc2oc3c(c2c1)CCN1C(=O)c2cc(Br)ccc2OC31` (centres undefined), which inhibition at 100 µM [1] is on record?
Answer: 13%

Question: What about the inhibition at 10 µM [2] of the same compound?
Answer: 9.2%

Question: What about the inhibition at 1 µM [3] of the same compound?
Answer: 6.8%

Question: Which inhibition at 100 µM [1] does the source give for `CN1c2ccccc2C(=O)N2CCc3c([nH]c4ccccc34)C21` (centres undefined) here?
Answer: 73.3%

Question: And the inhibition at 10 µM [2]?
Answer: 53.3%

Question: What about the inhibition at 1 µM [3] of the same compound?
Answer: 38.9%

Question: What about the IC50 [4] of the same compound?
Answer: 6300 nM

Question: What about the IC50 [5] of the same compound?
Answer: 32700 nM

Question: And the IC50 [6]?
Answer: 77200 nM

Question: And the IC50 [7]?
Answer: 13300 nM

Question: And the IC50 [9]?
Answer: > 100000 nM

Question: And the IC50 [10]?
Answer: > 100000 nM

Question: What about the selectivity ratio ([11]; MCF-10A cells versus MDA-MB-231 cells) of the same compound?
Answer: > 10.7

Question: For `COc1ccc2nc3c(cc2c1)CN1C(=O)c2ccccc2N(C)C31` (centres undefined), which inhibition at 100 µM [1] is on record?
Answer: 80.7%

Question: What about the inhibition at 10 µM [2] of the same compound?
Answer: 11.9%

Question: And the inhibition at 1 µM [3]?
Answer: 7.6%

Question: What does the source list for `CC[C@@]1(O)C(=O)OCc2c1cc1n(c2=O)Cc2cc3ccccc3nc2-1` [CAMPTOTHECIN]?
Answer: IC50 [4]: 310 nM; IC50 [6]: 100 nM; IC50 [7]: 420 nM; IC50 [12]: 170 nM; IC50 [13]: 560 nM; IC50 [14]: 110 nM; IC50 [15]: 540 nM; IC50 [16]: 1540 nM; Activity [17]: Active; IC50 [18]: 264 nM; IC50 [19]: > 6400 nM; Ratio IC50 [20]: 24; IC50 [10]: 2190 nM; selectivity ratio [11]: 5.2

From ChEMBL document CHEMBL5029185, “Discovery of Novel Polycyclic Heterocyclic Derivatives from Evodiamine for the Potential Treatment of Triple-Negative Breast Cancer” (J Med Chem, 2021)
